Test results as given in the NIST ThermoML archive (doi:10.1021/je800999s).

Assay: molar heat capacity at constant pressure; xn = mol fraction of the nth substance listed
Conditions: 101 kPa, Liquid, Large sample (1 g) DSC

CN1CCCC1=O [N-methylpyrrolidone] + O
molar heat capacity at constant pressure [J/K/mol]
Conditions | x1 = 0.0999 | x1 = 0.1998 | x1 = 0.2984 | x1 = 0.3979 | x1 = 0.4961 | x1 = 0.5981 | x1 = 0.6917 | x1 = 0.799 | x1 = 0.8946 | x1 = 1
303.15 K | 90 | 102 | 113 | 122 | 129 | 137 | 144 | 152 | 158 | 166
308.15 K | 90 | 103 | 114 | 123 | 131 | 138 | 146 | 153 | 160 | 167
313.15 K | 91 | 104 | 115 | 124 | 132 | 140 | 147 | 154 | 161 | 168
318.15 K | 91 | 105 | 116 | 125 | 133 | 141 | 148 | 155 | 162 | 169
323.15 K | 92 | 105 | 118 | 127 | 135 | 142 | 150 | 157 | 164 | 170
328.15 K | 92 | 106 | 119 | 128 | 136 | 144 | 151 | 158 | 165 | 172
333.15 K | 93 | 107 | 120 | 129 | 138 | 145 | 153 | 160 | 166 | 174
338.15 K | 93 | 108 | 121 | 131 | 139 | 147 | 154 | 161 | 168 | 175
343.15 K | 94 | 109 | 122 | 132 | 141 | 149 | 156 | 163 | 169 | 176
348.15 K | 95 | 110 | 123 | 133 | 142 | 150 | 157 | 164 | 170 | 177
353.15 K | 95 | 110 | 124 | 134 | 142 | 151 | 158 | 165 | 170 | 178

O=S1(=O)CCCC1 [sulfolane] + O
molar heat capacity at constant pressure [J/K/mol]
Conditions | x1 = 0.0999 | x1 = 0.1998 | x1 = 0.2987 | x1 = 0.3995 | x1 = 0.4945 | x1 = 0.5987 | x1 = 0.6984 | x1 = 0.7904 | x1 = 0.8865 | x1 = 1
303.15 K | 87 | 100 | 112 | 124 | 135 | 145 | 155 | 164 | 173 | 182
308.15 K | 88 | 100 | 113 | 125 | 136 | 147 | 156 | 166 | 175 | 184
313.15 K | 88 | 101 | 114 | 126 | 137 | 148 | 157 | 167 | 176 | 185
318.15 K | 88 | 102 | 114 | 127 | 138 | 149 | 159 | 168 | 177 | 186
323.15 K | 89 | 102 | 115 | 128 | 139 | 150 | 160 | 170 | 179 | 188
328.15 K | 89 | 103 | 116 | 129 | 141 | 152 | 162 | 172 | 181 | 189
333.15 K | 89 | 104 | 117 | 130 | 142 | 153 | 164 | 173 | 183 | 191
338.15 K | 90 | 104 | 118 | 131 | 143 | 155 | 165 | 175 | 184 | 193
343.15 K | 90 | 105 | 119 | 132 | 144 | 156 | 167 | 177 | 186 | 194
348.15 K | 91 | 106 | 120 | 133 | 146 | 158 | 169 | 179 | 188 | 197
353.15 K | 91 | 107 | 121 | 135 | 148 | 160 | 171 | 181 | 191 | 199
